Results reported in PubChem BioAssay AID2060902 (Molecular Pharmacology Branch, DTP, NCI, 2025).

Test system: 485368-065-R3-J5-PDC spheroids with HUVEC/MSC, viability
Test: Anticancer human tumor 485368-065-R3-J5-PDC patient-derived pancreatic carcinoma cell line growth inhibition [RAS]
Details: for IC50: curve of first compound; for viability, T/C: stronger effect = lower value
Summary of the method: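 Tumour cells grown as complex spheroids with HUVEC endothelial cells and mesenchymal stem cells, treated with RAS pathway inhibitor combinations. Each agent spans half-log steps from near clinical Cmax, or 10 microM where Cmax is unknown.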

[1] = second compound 0.000949 µM, first compound 0.0316 µM
[2] = second compound 0.000949 µM, first compound 0.1 µM
[3] = second compound 0.000949 µM, first compound 0.316 µM
[4] = second compound 0.000949 µM, first compound 1 µM
[5] = second compound 0.000949 µM, first compound 3.16 µM
[6] = second compound 0.000949 µM, first compound 10 µM
[7] = second compound 0.003 µM, first compound 0.0316 µM
[8] = second compound 0.003 µM, first compound 0.1 µM
[9] = second compound 0.003 µM, first compound 0.316 µM
[10] = second compound 0.003 µM, first compound 1 µM
[11] = second compound 0.003 µM, first compound 3.16 µM
[12] = second compound 0.003 µM, first compound 10 µM
[13] = second compound 0.00949 µM, first compound 0.0316 µM
[14] = second compound 0.00949 µM, first compound 0.1 µM
[15] = second compound 0.00949 µM, first compound 0.316 µM
[16] = second compound 0.00949 µM, first compound 1 µM
[17] = second compound 0.00949 µM, first compound 3.16 µM
[18] = second compound 0.00949 µM, first compound 10 µM
[19] = second compound 0.03 µM, first compound 0.0316 µM
[20] = second compound 0.03 µM, first compound 0.1 µM
[21] = second compound 0.03 µM, first compound 0.316 µM
[22] = second compound 0.03 µM, first compound 1 µM
[23] = second compound 0.03 µM, first compound 3.16 µM
[24] = second compound 0.03 µM, first compound 10 µM
[25] = second compound 0.0949 µM, first compound 0.0316 µM
[26] = second compound 0.0949 µM, first compound 0.1 µM
[27] = second compound 0.0949 µM, first compound 0.316 µM
[28] = second compound 0.0949 µM, first compound 1 µM
[29] = second compound 0.0949 µM, first compound 3.16 µM
[30] = second compound 0.0949 µM, first compound 10 µM
[31] = second compound 0.3 µM, first compound 0.0316 µM
[32] = second compound 0.3 µM, first compound 0.1 µM
[33] = second compound 0.3 µM, first compound 0.316 µM
[34] = second compound 0.3 µM, first compound 1 µM
[35] = second compound 0.3 µM, first compound 3.16 µM
[36] = second compound 0.3 µM, first compound 10 µM
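Also: spheroids exposed to agents for seven days before readout.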

CC(C)NCC(C(=O)N1CCN(c2ncnc3c2C(C)CC3O)CC1)c1ccc(Cl)cc1 (stereo unspecified) + CCn1c(-c2cc(N3CCN(C)CC3)cnc2C(C)OC)c2c3cc(ccc31)-c1csc(n1)CC(NC(=O)C1CC1C)C(=O)N1CCCC(N1)C(=O)OCC(C)(C)C2
IC50 (second compound 0.000949 µM): < 31.6 nM | IC50 (second compound 0.003 µM): < 31.6 nM | IC50 (second compound 0.00949 µM): < 31.6 nM | IC50 (second compound 0.03 µM): < 31.6 nM | IC50 (second compound 0.0949 µM): < 31.6 nM | IC50 (second compound 0.3 µM): < 31.6 nM | viability, T/C [1]: 40.8% | viability, T/C [2]: 36.3% | viability, T/C [3]: 29.3% | viability, T/C [4]: 23.7% | viability, T/C [5]: 18.2% | viability, T/C [6]: 16.4% | viability, T/C [7]: 22.7% | viability, T/C [8]: 21.8% | viability, T/C [9]: 17.9% | viability, T/C [10]: 14.6% | viability, T/C [11]: 11.9% | viability, T/C [12]: 8.84% | viability, T/C [13]: 15.5% | viability, T/C [14]: 16.6% | viability, T/C [15]: 15.6% | viability, T/C [16]: 14% | viability, T/C [17]: 10.2% | viability, T/C [18]: 7.3% | viability, T/C [19]: 11.7% | viability, T/C [20]: 13.6% | viability, T/C [21]: 12.6% | viability, T/C [22]: 10.5% | viability, T/C [23]: 7.29% | viability, T/C [24]: 6.75% | viability, T/C [25]: 10.1% | viability, T/C [26]: 9.26% | viability, T/C [27]: 7.76% | viability, T/C [28]: 7.82% | viability, T/C [29]: 7.22% | viability, T/C [30]: 6.12% | viability, T/C [31]: 8.98% | viability, T/C [32]: 7.69% | viability, T/C [33]: 8.06% | viability, T/C [34]: 7.28% | viability, T/C [35]: 6.22% | viability, T/C [36]: 5.13%

CC(C)n1nc(-c2ccc3oc(N)nc3c2)c2c(N)ncnc21 + CCn1c(-c2cc(N3CCN(C)CC3)cnc2C(C)OC)c2c3cc(ccc31)-c1csc(n1)CC(NC(=O)C1CC1C)C(=O)N1CCCC(N1)C(=O)OCC(C)(C)C2
IC50 (second compound 0.000949 µM): < 0.316 nM | IC50 (second compound 0.003 µM): < 0.316 nM | IC50 (second compound 0.00949 µM): < 0.316 nM | IC50 (second compound 0.03 µM): < 0.316 nM | IC50 (second compound 0.0949 µM): < 0.316 nM | IC50 (second compound 0.3 µM): < 0.316 nM | viability, T/C (second compound 0.000949 µM, first compound 0.000316 µM): 37.1% | viability, T/C (second compound 0.000949 µM, first compound 0.001 µM): 33.2% | viability, T/C (second compound 0.000949 µM, first compound 0.00316 µM): 25.4% | viability, T/C (second compound 0.000949 µM, first compound 0.01 µM): 25.5% | viability, T/C [1]: 16.9% | viability, T/C [2]: 14.4% | viability, T/C (second compound 0.003 µM, first compound 0.000316 µM): 23.3% | viability, T/C (second compound 0.003 µM, first compound 0.001 µM): 20.4% | viability, T/C (second compound 0.003 µM, first compound 0.00316 µM): 18.3% | viability, T/C (second compound 0.003 µM, first compound 0.01 µM): 15.1% | viability, T/C [7]: 11.4% | viability, T/C [8]: 8.13% | viability, T/C (second compound 0.00949 µM, first compound 0.000316 µM): 19.9% | viability, T/C (second compound 0.00949 µM, first compound 0.001 µM): 17.6% | viability, T/C (second compound 0.00949 µM, first compound 0.00316 µM): 15.4% | viability, T/C (second compound 0.00949 µM, first compound 0.01 µM): 11.2% | viability, T/C [13]: 7.74% | viability, T/C [14]: 7.71% | viability, T/C (second compound 0.03 µM, first compound 0.000316 µM): 13.6% | viability, T/C (second compound 0.03 µM, first compound 0.001 µM): 12.3% | viability, T/C (second compound 0.03 µM, first compound 0.00316 µM): 11.5% | viability, T/C (second compound 0.03 µM, first compound 0.01 µM): 10.1% | viability, T/C [19]: 8.37% | viability, T/C [20]: 6.86% | viability, T/C (second compound 0.0949 µM, first compound 0.000316 µM): 9.34% | viability, T/C (second compound 0.0949 µM, first compound 0.001 µM): 9.41% | viability, T/C (second compound 0.0949 µM, first compound 0.00316 µM): 9.4% | viability, T/C (second compound 0.0949 µM, first compound 0.01 µM): 8.96% | viability, T/C [25]: 8.01% | viability, T/C [26]: 7.66% | viability, T/C (second compound 0.3 µM, first compound 0.000316 µM): 8.85% | viability, T/C (second compound 0.3 µM, first compound 0.001 µM): 9.23% | viability, T/C (second compound 0.3 µM, first compound 0.00316 µM): 9.13% | viability, T/C (second compound 0.3 µM, first compound 0.01 µM): 7.72% | viability, T/C [31]: 8.58% | viability, T/C [32]: 6.19%

C[C@@H](NC(=O)c1ncnc(N)c1Cl)c1ncc(C(=O)Nc2cc(C(F)(F)F)c(Cl)cn2)s1 + CCn1c(-c2cc(N3CCN(C)CC3)cnc2C(C)OC)c2c3cc(ccc31)-c1csc(n1)CC(NC(=O)C1CC1C)C(=O)N1CCCC(N1)C(=O)OCC(C)(C)C2
IC50 (second compound 0.000949 µM): 31.6 nM | IC50 (second compound 0.003 µM): < 31.6 nM | IC50 (second compound 0.00949 µM): < 31.6 nM | IC50 (second compound 0.03 µM): < 31.6 nM | IC50 (second compound 0.0949 µM): < 31.6 nM | IC50 (second compound 0.3 µM): < 31.6 nM | viability, T/C [1]: 41.3% | viability, T/C [2]: 46.5% | viability, T/C [3]: 55% | viability, T/C [4]: 51.5% | viability, T/C [5]: 45.7% | viability, T/C [6]: 38% | viability, T/C [7]: 22.9% | viability, T/C [8]: 24.4% | viability, T/C [9]: 26.9% | viability, T/C [10]: 28.8% | viability, T/C [11]: 24.8% | viability, T/C [12]: 24.8% | viability, T/C [13]: 15.6% | viability, T/C [14]: 16.8% | viability, T/C [15]: 17.4% | viability, T/C [16]: 18.4% | viability, T/C [17]: 18.9% | viability, T/C [18]: 18.6% | viability, T/C [19]: 14% | viability, T/C [20]: 14.2% | viability, T/C [21]: 16.5% | viability, T/C [22]: 16.2% | viability, T/C [23]: 15.4% | viability, T/C [24]: 12.7% | viability, T/C [25]: 10% | viability, T/C [26]: 11% | viability, T/C [27]: 10.4% | viability, T/C [28]: 11.8% | viability, T/C [29]: 16.1% | viability, T/C [30]: 10.8% | viability, T/C [31]: 9.44% | viability, T/C [32]: 10.4% | viability, T/C [33]: 11.2% | viability, T/C [34]: 11% | viability, T/C [35]: 13.1% | viability, T/C [36]: 11.4%
